Test results taken from patent US20060111341A1, “Use of galanthamine and the derivatives thereof in the production of medicaments” (priority 2003, published 2006).

What was measured:
Acetylcholinesterase = Acetylcholinesterase (Homo sapiens, UniProt P22303); assay: biochemical
Butyrylcholinesterase = Butyrylcholinesterase (Homo sapiens, UniProt P06276); assay: biochemical
Chain of Butyrylcholinesterase (P06276 29-602): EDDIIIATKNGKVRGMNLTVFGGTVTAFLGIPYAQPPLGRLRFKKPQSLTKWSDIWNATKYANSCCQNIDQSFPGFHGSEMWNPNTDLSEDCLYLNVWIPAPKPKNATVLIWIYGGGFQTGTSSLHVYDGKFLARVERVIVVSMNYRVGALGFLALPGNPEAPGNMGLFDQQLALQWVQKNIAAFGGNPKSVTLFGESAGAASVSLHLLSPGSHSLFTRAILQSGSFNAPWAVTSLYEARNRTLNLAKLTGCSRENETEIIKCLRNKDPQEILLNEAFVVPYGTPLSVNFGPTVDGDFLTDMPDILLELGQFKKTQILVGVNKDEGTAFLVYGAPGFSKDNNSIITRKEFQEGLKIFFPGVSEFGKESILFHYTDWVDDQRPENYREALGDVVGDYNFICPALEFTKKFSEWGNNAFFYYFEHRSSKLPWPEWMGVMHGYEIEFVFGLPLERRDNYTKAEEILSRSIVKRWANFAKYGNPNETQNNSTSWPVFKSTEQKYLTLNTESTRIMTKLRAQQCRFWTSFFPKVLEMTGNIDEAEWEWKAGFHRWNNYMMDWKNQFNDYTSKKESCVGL

Chain of Acetylcholinesterase (P22303 32-614): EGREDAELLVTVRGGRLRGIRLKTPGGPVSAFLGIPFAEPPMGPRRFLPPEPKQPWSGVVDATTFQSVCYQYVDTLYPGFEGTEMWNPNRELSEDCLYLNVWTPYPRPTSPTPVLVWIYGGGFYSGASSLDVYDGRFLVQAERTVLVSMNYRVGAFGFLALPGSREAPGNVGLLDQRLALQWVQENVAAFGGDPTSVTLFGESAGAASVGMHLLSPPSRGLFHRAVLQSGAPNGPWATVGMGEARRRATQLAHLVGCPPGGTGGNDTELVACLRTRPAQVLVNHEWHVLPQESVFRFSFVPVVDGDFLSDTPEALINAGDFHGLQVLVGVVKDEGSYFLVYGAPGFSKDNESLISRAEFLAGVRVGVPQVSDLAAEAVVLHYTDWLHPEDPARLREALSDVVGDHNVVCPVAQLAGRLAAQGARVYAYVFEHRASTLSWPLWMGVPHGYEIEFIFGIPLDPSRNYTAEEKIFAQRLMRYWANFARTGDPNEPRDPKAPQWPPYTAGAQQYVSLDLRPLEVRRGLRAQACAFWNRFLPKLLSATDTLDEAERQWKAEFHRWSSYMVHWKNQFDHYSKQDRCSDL

SMILES | IC50 (Acetylcholinesterase) [µM] | IC50 (Butyrylcholinesterase) [µM]
COc1cc(Br)c2c3c1OC1CC(=O)C=CC31CCN(C)C2 (racemic) [Nr 11] | 50 | –
COc1cc(Br)c2c(c1O)C13C=CC(=O)CC1N(CC3)C2 (racemic) [Nr 13] | 5 | –
COc1cc(Br)c2c(c1O)C13C=C[C@@H](O)CC1N(CC3)C2 (mixture of isomers) [Nr 14] | > 100 | 18
CCCCCCN1CCC23C=C[C@H](O)CC2Oc2c(OC)cc(Br)c(c23)C1 (mixture of isomers) [Nr 15] | 40 | 0.45
COc1cc(Br)c2c3c1OC1C[C@@H](O)C=CC31CCN(CC#N)C2 (mixture of isomers) [Nr 19] | > 100 | 70
CCOC(=O)C(=O)N1CCC23C=C[C@H](O)CC2Oc2c(OC)cc(Br)c(c23)C1 (mixture of isomers) [Nr 20] | 32 | 11
C#CCN1CCC23C=C[C@H](O)CC2Oc2c(OC)cc(Br)c(c23)C1 (mixture of isomers) [Nr 23] | 63 | 10
COc1ccc2c3c1OC1C/C(=N/N(C)C)C=CC31CCN(C)C2 (racemic) [Nr 24] | 80 | 60
COc1cc(Br)c2c3c1OC1C[C@@H](O)C=CC31CCN(CCN1CCOCC1)C2 (mixture of isomers) [Nr 25] | 3 | –
CCOC(=O)CN1CCC23C=C[C@H](O)CC2Oc2c(OC)cc(Br)c(c23)C1 (mixture of isomers) [Nr 26] | 20 | –
COc1cc(Br)c2c3c1OC1C[C@@H](O)C=CC31CCN(CC(N)=O)C2 (mixture of isomers) [Nr 27] | > 100 | 15
COc1ccc2c3c1OC1C/C(=N/N)C=CC31CCN(C)C2 (racemic) [Nr 28] | 40 | –
COc1ccc2c3c1OC1C/C(=N/NC(N)=O)C=CC31CCN(C)C2 (racemic) [Nr 32] | > 100 | 20
COc1cc(Br)c2c3c1OC1C[C@@H](O)C=CC31CCN(CCO)C2 (mixture of isomers) [Nr 33] | 34 | 6.4
COc1ccc2c3c1OC1C[C@@H](O)C=CC31CCN(CCO)C2 (mixture of isomers) [Nr 34] | 14 | 26
C=CCN1CCC23C=C[C@H](O)CC2Oc2c(OC)cc(Br)c(c23)C1 (mixture of isomers) [Nr 35] | > 100 | 2.6
COc1ccc2c3c1OC1C[C@@H](O)C=CC31CCN(CCN1CCOCC1)C2 (mixture of isomers) [Nr 36] | – | 7
COc1ccc2c3c1OC1C[C@@H](O)C=CC31CCN(CC#N)C2 (mixture of isomers) [Nr 37] | 30 | > 100
COc1cc(Br)c2c3c1OC1C[C@@H](O)C=CC31CCN(Cc1ccccc1)C2 (mixture of isomers) [Nr 38] | > 100 | 0.24
C=CCN1CCC23C=C[C@H](O)CC2Oc2c(OC)ccc(c23)C1 (mixture of isomers) [Nr 40] | 3.3 | 3.1
COc1ccc2c3c1OC1C[C@@H](O)C=CC31CCN(Cc1ccccc1)C2 (mixture of isomers) [Nr 41] | 0.7 | 0.65
COc1cc(Br)c2c3c1OC1C[C@@H](O)C=CC31CCN(C(=O)CCN1CCCCC1)C2 (mixture of isomers) [Nr 43] | 0.2 | –
CCOC(=O)CCN1CCC23C=C[C@H](O)CC2Oc2c(OC)cc(Br)c(c23)C1 (mixture of isomers) [Nr 55] | > 100 | 19
COc1ccc2c3c1OC1C[C@@H](O)C=CC31CCN(CCCN1CC3CC1CN3c1ccccc1)C2 (mixture of isomers) [Nr 60] | 24 | 7.5
COc1ccc2c3c1OC1C[C@@H](O)C=CC31CCN(CCCN1CC3CC1CN3c1ccc(F)cc1)C2 (mixture of isomers) [Nr 61] | 5.2 | 5

SMILES | IC50 (Acetylcholinesterase) [µM] | IC50 (Butyrylcholinesterase) [µM]
C=CCN1CCC23C=C[C@H](O)CC2Oc2c(OC)cc(C)c(c23)C1 (mixture of isomers) [Nr 62] | > 100 | 2.3
COc1cc(C)c2c3c1OC1C[C@@H](O)C=CC31CCN(C)C2 (mixture of isomers) [Nr 63] | > 100 | 17
COc1cc(C)c2c3c1OC1C[C@@H](O)C=CC31CCN(CCCN1CCCCC1)C2 (mixture of isomers) [Nr 64] | 46 | 0.6
COc1cc(C)c2c3c1OC1C[C@@H](O)C=CC31CCN(CCN1CCOCC1)C2 (mixture of isomers) [Nr 65] | > 100 | 5.2
C=C(C)C[N+]1(C)CCC23C=C[C@H](O)CC2Oc2c(OC)cc(C)c(c23)C1 (mixture of isomers) [Nr 67] | 70 | 2.4
C#CC[N+]1(C)CCC23C=C[C@H](O)CC2Oc2c(OC)cc(C)c(c23)C1 (mixture of isomers) [Nr 68] | 78 | 2.5
COc1cc(C)c2c3c1OC1C[C@@H](O)C=CC31CC[N+](C)(Cc1ccccc1)C2 (mixture of isomers) [Nr 69] | 47 | 0.7
COc1cc(Br)c2c3c1OC1C[C@@H](O)C=CC31CCN(C(=O)NC(C)C)C2 (mixture of isomers) [Nr 70] | > 100 | 25
COc1ccc2c3c1O[C@H]1C[C@@H](O)C=C[C@@]31CCN(CCCN(C)C)C2 (racemic) [Nr 74] | – | 10
COc1ccc2c3c1OC1C[C@@H](O)C=CC31CCN(CCC#N)C2 (mixture of isomers) [Nr 77] | – | > 100
CCOC(=O)CCN1CCC23C=C[C@H](O)CC2Oc2c(OC)ccc(c23)C1 (mixture of isomers) [Nr 78] | – | 17
COc1ccc2c3c1OC1C[C@@H](O)C=CC31CCN(C(=O)NC1CCCCC1)C2 (mixture of isomers) [Nr 83] | – | > 100
CCNC(=O)N1CCC23C=C[C@H](O)CC2Oc2c(OC)ccc(c23)C1 (mixture of isomers) [Nr 87] | – | > 100
COc1cc(Br)c2c3c1OC1C[C@@H](O)C=CC31CCNC2 (mixture of isomers) [Nr 93] | 5 | –
COc1ccc2c3c1OC1C[C@@H](O)C=CC31CCN(C(=O)CCl)C2 (mixture of isomers) [Nr 98] | – | 20
CCOC(=O)CN1CCC23C=C[C@H](O)CC2Oc2c(OC)ccc(c23)C1 (mixture of isomers) [Nr 100] | – | 90
COc1cc(Br)c2c(c1O)C13CCC(O)CC1N(CC3)C2 (racemic) [Nr 205] | 50 | –
COc1ccc2c3c1O[C@H]1C[C@@H](OC(=O)N[C@H](C)c4ccccc4)C=C[C@@]31CCN(C)C2 [Nr 2] | – | 70
COc1ccc2c3c1O[C@H]1C[C@@H](OC(=O)N[C@@H](C)c4ccccc4)C=C[C@@]31CCN(C)C2 [Nr 3] | – | 75
COc1ccc2c3c1O[C@H]1C[C@@H](O)C=C[C@@]31CC[N+](C)(CCCN1CCCCC1)C2 (stereo partly drawn) [Nr 4] | 6 | –
COc1ccc2c3c1O[C@H]1C[C@H](OC(=O)CNC(=O)OC(C)(C)C)C=C[C@@]31CCN(C)C2 [Nr 6] | 45 | –
COc1ccc2c3c1O[C@H]1C[C@@H](O)C=C[C@@]31CC[N+](C)(CCN1CCCC1)C2 (stereo partly drawn) [Nr 7] | 2 | –
COc1ccc2c3c1O[C@H]1C[C@@H](O)C=C[C@@]31CC[N+](C)(CCN(C)C)C2 (stereo partly drawn) [Nr 8] | 8 | –
COc1cc(Br)c2c3c1O[C@H]1C[C@@H](O)C=C[C@@]31CCNC2 [Nr 29] | 3 | –
COc1cc(Br)c2c3c1O[C@H]1C[C@@H](O)C=C[C@@]31CCN(C)C2 [Nr 30] | 4 | –

SMILES | IC50 (Acetylcholinesterase) [µM] | IC50 (Butyrylcholinesterase) [µM]
COc1ccc2c3c1O[C@H]1C[C@@H](O)C=C[C@@]31CC[N+](C)(CC(N)=O)C2 (stereo partly drawn) [Nr 51] | 3.1 | –
COc1ccc2c3c1O[C@H]1C[C@@H](O)C=C[C@@]31CC[N+](C)(CCN1CCCCC1)C2 (stereo partly drawn) [Nr 52] | 4 | –
COc1ccc2c3c1O[C@H]1C[C@@H](O)C=C[C@@]31CC[N+](C)(CCCCl)C2 (stereo partly drawn) [Nr 59] | 0.35 | –
COc1ccc2c3c1O[C@H]1C[C@@H](O)C=C[C@@]31CCN(CCC(=O)OC(C)(C)C)C2 [Nr 116] | – | 4
COc1ccc2c3c1O[C@@H]1C[C@H](O)C=C[C@]31CCN(C(=O)NC(C)(C)C)C2 [Nr 125] | 93 | –
COc1ccc2c3c1O[C@H]1C[C@@H](O)C=C[C@@]31CCN(C)[C@@H]2C#N [Nr 132] | 1.2 | –
COc1ccc2c3c1O[C@H]1C[C@@H](O)C=C[C@@]31CCN(C(=O)OCC1c3ccccc3-c3ccccc31)C2 [Nr 134] | 40 | –
COc1ccc2c3c1O[C@H]1C[C@@H](O)C=C[C@@]31CCN(CC#N)C2 [Nr 136] | 15 | –
COc1cc(C)c2c3c1O[C@H]1C[C@@H](O)C=C[C@@]31CCN(C)C2C (stereo partly drawn) [Nr 146] | 83 | –
COc1ccc2c3c1O[C@@H]1C[C@H](O)C=C[C@]31CCN(CCCN(C)C)C2 [Nr 151] | – | 67
C#CCN1CC[C@@]23C=C[C@H](O)C[C@@H]2Oc2c(OC)ccc(c23)C1 [Nr 156] | 32 | –
COc1ccc2c3c1O[C@H]1C[C@@H](O)C=C[C@@]31CCN(CCCN1CCCCC1)C2 [Nr 162] | 0.36 | –
COc1ccc2c3c1O[C@H]1C[C@@H](O)C=C[C@@]31CCN(CCCCCN1C(=O)c3ccccc3S1(=O)=O)C2 [Nr 163] | 0.022 | –
COc1ccc2c3c1O[C@H]1C[C@@H](O)C=C[C@@]31CCN(CCCCCCN1C(=O)c3ccccc3S1(=O)=O)C2 [Nr 164] | 0.043 | –
COc1ccc2c3c1O[C@H]1C[C@@H](O)C=C[C@@]31CCN(CCCCN1C(=O)c3ccccc3S1(=O)=O)C2 [Nr 165] | 0.027 | –
COc1cc2c(cc1OC)C(=O)C(CCCCCN1CC[C@@]34C=C[C@H](O)C[C@@H]3Oc3c(OC)ccc(c34)C1)C2 (stereo partly drawn) [Nr 166] | 0.023 | –
COc1ccc2c(c1)CC(CCCCN1CC[C@@]34C=C[C@H](O)C[C@@H]3Oc3c(OC)ccc(c34)C1)C2=O (stereo partly drawn) [Nr 168] | 0.024 | –
COc1ccc2c3c1O[C@@H]1C[C@H](OC(=O)N[C@H](C)c4ccccc4)C=C[C@]31CCN(C)C2 [Nr 180] | 85 | –
COc1ccc2c3c1O[C@@H]1C[C@H](OC(=S)Nc4ccccc4)C=C[C@]31CCN(C)C2 [Nr 181] | 35 | –
CCCCNC(=S)O[C@@H]1C=C[C@]23CCN(C)Cc4ccc(OC)c(c42)O[C@@H]3C1 [Nr 182] | 85 | –
COc1ccc2c3c1O[C@H]1C[C@@H](O)C=C[C@]31CC[N+](C)(CCN1CCOCC1)C2 (stereo partly drawn) [Nr 199] | 5 | –
COc1cc(Br)c2c3c1O[C@@H]1C[C@H](O)C=C[C@]31CCN(C(=O)CN1CCN(C)CC1)C2 [Nr 272] | 89 | –
COc1cc(Br)c2c3c1O[C@@H]1C[C@H](O)C=C[C@]31CCN(CCCN1CCN(C)CC1)C2 [Nr 273] | – | 31
